Source: ChEMBL document CHEMBL1201862, “PubChem BioAssay data set” (2004)
Calls of active or inactive are those of the source. For most assays here, no stated cut-off is given here; in the data, actives have a measured EC50 and inactives only a lower limit.

What was measured:
[1] = Luminescence Cell-Based Dose Confirmation to Identify Activators of 5'UTR Stem-Loop Driven Alpha-Synuclein mRNA Translation in H4 Neuroglioblastoma Cells. [Related pubchem assays: 1829 (Project Summary), 1814 (Primary HTS)]; type: functional
[2] = Luminescence Cell-Based Dose Response to Identify Activators of 5'UTR Stem-Loop Driven Prion Protein mRNA Translation in H4-C Neuroglioblastoma Cells. [Related pubchem assays: 1829 (Project Summary), 1814 (Primary HTS)]; type: functional
[3] = Luminescence Cell-Based Dose Response HTS to Identify Activators of Luciferase Translation or Activity in H4 […] Cells. [Related pubchem assays: 1829 (Project Summary), 1814 (Primary HTS)]; type: functional
[4] = Luminescence Cell-Based Dose Response to Identify Activators of Luciferase Translation or Activity in H4-C Neuroglioblastoma Cells. [Related pubchem assays: 1829 (Project Summary), 1814 (Primary HTS)]; type: functional
H4 = test: Luminescence Cell-Based Dose Response HTS to Identify Activators of 5'UTR Stem-Loop Driven Prion Protein mRNA Translation in H4 Neuroglioblastoma Cells. [Related pubchem assays: 1829 (Project Summary), 1814 (Primary HTS)]; type: functional; settings: Homo sapiens
[5] = blockers of CRF-binding protein–CRF-R2 complex – cell-based, uHTS hits, 384-well, dose response (AID 651639); type: functional, Homo sapiens; settings: read-out: IC50_Mean
[6] = molecular target: T1, Corticotropin-releasing factor receptor 2/Corticotropin-releasing factor-binding protein (Homo sapiens, UniProt P24387+Q13324); test: activators of CRF receptor 2 with binding protein – uHTS hits, confirmation (AID 602473); type: functional; settings: read-out: EC50_Mean
T1 sequence (Q13324 whole entry): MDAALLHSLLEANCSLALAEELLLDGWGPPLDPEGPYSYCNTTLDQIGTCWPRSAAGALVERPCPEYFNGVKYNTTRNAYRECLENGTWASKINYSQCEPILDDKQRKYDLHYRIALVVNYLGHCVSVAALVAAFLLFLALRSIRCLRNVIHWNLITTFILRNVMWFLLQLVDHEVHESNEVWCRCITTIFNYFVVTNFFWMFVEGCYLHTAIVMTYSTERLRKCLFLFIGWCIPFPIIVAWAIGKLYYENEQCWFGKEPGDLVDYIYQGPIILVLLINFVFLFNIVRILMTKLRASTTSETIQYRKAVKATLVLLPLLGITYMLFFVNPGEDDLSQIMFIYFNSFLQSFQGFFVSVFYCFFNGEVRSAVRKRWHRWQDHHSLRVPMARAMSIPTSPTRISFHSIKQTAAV
T1 sequence (P24387 whole entry): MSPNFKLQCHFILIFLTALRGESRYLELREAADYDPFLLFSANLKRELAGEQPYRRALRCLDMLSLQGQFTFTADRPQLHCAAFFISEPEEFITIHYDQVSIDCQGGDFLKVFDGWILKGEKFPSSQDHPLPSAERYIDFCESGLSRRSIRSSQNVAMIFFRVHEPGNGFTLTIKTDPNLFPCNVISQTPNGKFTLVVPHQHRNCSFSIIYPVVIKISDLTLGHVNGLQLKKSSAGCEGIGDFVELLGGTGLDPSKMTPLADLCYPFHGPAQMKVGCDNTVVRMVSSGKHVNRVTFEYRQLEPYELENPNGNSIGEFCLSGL

[7] = molecular target: T1, Corticotropin-releasing factor receptor 2/Corticotropin-releasing factor-binding protein; test: Dose Response confirmation of uHTS hits for small molecule antagonists of the CRF-binding protein and CRF-R2 receptor complex.; type: functional; settings: read-out: IC50_Mean
Genome polyprotein = Genome polyprotein (dengue virus type 2, UniProt P29990); test: flavivirus cap methylation enzyme inhibition – biochemical, confirmation dose response, primary screen (AID 588689); type: functional
[8] = viability loss of HPDE-C7K cells – cell-based, fluorescence, HTS, primary screen (AID 431); type: functional; settings: Homo sapiens
[9] = HPDE-C7 pancreatic duct cell viability loss – fluorescence, HTS (AID 430); type: functional, cell-based; settings: Homo sapiens
HEK293 [10] = test: NOD2 signaling inhibitors in MDP-stimulated cells, cell-based, uHTS, luminescence (AID 2001); type: functional; settings: Homo sapiens
HEK293 [11] = test: inhibition of NOD1-driven NF-kB reporter – cell-based, luminescence, uHTS, primary screen (AID 1578); type: functional; settings: Homo sapiens
[12] = molecular target: T2, Zinc finger protein mex-5 (Caenorhabditis elegans, UniProt Q9XUB2); test: potency of MEX-5 RNA-binding blockers – biochemical, C. elegans, fluorescence polarization, dose response (AID 1960)
T2 sequence (Q9XUB2 whole entry): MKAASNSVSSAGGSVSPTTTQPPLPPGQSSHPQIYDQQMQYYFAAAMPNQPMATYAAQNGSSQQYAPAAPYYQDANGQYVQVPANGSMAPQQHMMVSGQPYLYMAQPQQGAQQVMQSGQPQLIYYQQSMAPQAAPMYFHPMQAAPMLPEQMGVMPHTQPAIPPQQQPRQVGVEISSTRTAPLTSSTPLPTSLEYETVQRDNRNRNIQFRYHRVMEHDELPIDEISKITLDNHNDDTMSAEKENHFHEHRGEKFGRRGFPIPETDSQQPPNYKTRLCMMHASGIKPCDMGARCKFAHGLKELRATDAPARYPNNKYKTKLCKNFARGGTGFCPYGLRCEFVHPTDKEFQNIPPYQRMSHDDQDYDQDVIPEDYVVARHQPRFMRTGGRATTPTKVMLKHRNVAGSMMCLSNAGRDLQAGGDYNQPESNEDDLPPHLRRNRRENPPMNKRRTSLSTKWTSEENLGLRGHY

HEK293 [13] = test: cells; type: functional, cell-based; settings: Homo sapiens
HEK293 [14] = test: cells; type: functional, cell-based; settings: Homo sapiens; remark: listed apart in the source
[15] = molecular target: T3, RNA-binding protein pos-1 (Caenorhabditis elegans, UniProt G5EF15); test: disruptors of C. elegans POS-1 RNA interaction – biochemical, fluorescence polarization, dose response (AID 1964);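 further: purified POS-1 fused to maltose binding protein made in E. coli; potency of compounds blocking POS-1 binding to fluorescent RNA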
T3 sequence (G5EF15 whole entry): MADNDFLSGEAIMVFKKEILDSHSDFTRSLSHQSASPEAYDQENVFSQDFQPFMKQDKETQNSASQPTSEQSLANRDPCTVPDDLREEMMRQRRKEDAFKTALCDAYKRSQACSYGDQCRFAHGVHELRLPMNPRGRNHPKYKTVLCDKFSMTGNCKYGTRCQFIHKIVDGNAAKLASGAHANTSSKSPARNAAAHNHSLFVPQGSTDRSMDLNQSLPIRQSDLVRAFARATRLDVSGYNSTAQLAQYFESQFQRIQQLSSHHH

[16] = Luminescence Cell-Based Dose Confirmation HTS to Identify Activators of 5'UTR Stem-Loop Driven Alpha-Synuclein mRNA Translation in H4 Neuroglioblastoma Cells. [Related pubchem assays: 1829 (Project Summary), 1814 (Primary HTS)]; type: functional
[17] = HIV-1 Vif–A3G interaction blockers – biochemical, TR-FRET, GST-Vif 1-94, biotin-A3G peptide, dose response retest, primary screen (AID 1117319); type: functional;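 further: TR-FRET signal of purified GST-Vif binding a biotinylated A3G peptide; inhibitors lower the FRET signal by blocking Vif and A3G binding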
[18] = molecular target: T4, Short transient receptor potential channel 4 (Mus musculus, UniProt Q9QUQ5); test: calcium entry via TRPC4 opening agents – cell-based, HEK293 TRPC4/mu-opioid, Fluo-4 calcium, dose response (AID 434937); type: functional
T4 sequence (Q9QUQ5 whole entry): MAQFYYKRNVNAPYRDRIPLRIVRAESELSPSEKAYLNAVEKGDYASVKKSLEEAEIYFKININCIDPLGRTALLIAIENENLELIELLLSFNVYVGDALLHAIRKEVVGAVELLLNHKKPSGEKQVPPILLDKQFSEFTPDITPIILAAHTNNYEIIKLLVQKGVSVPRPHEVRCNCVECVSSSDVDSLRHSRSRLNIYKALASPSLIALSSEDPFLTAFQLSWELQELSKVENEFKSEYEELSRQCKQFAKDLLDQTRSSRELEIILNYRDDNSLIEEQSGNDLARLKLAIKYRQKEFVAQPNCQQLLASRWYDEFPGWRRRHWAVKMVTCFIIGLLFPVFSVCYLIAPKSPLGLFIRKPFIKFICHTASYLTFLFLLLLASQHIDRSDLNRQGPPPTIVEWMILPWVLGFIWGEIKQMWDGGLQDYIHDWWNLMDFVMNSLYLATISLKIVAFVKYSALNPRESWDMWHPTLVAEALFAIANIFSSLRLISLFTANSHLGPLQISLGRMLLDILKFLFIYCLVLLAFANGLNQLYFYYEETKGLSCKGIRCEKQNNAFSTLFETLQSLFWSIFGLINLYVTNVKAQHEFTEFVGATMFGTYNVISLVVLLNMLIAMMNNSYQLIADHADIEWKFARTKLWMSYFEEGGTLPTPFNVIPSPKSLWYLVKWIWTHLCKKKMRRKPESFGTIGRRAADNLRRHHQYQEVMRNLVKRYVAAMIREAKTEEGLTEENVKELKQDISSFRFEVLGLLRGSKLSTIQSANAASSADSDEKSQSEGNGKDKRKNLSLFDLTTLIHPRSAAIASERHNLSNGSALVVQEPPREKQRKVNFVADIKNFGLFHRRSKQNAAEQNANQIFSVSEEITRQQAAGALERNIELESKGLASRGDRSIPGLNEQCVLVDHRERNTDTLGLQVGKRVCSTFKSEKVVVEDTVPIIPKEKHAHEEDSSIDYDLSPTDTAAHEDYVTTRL

[19] = molecular target: FAD-linked sulfhydryl oxidase ALR (Homo sapiens, UniProt P55789); test: ALR-catalysed DTT oxidation blockers – biochemical, H2O2 detection, luminescence, cherry-pick, dose response (AID 493248)
Chain of FAD-linked sulfhydryl oxidase ALR (P55789 whole entry): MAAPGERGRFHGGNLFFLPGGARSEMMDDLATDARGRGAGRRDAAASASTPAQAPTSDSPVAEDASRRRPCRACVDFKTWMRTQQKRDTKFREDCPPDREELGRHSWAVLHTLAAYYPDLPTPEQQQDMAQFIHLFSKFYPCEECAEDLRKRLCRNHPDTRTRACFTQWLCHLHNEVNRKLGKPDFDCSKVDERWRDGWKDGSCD

Chain of Genome polyprotein (P29990 2492-3391 limits assumed): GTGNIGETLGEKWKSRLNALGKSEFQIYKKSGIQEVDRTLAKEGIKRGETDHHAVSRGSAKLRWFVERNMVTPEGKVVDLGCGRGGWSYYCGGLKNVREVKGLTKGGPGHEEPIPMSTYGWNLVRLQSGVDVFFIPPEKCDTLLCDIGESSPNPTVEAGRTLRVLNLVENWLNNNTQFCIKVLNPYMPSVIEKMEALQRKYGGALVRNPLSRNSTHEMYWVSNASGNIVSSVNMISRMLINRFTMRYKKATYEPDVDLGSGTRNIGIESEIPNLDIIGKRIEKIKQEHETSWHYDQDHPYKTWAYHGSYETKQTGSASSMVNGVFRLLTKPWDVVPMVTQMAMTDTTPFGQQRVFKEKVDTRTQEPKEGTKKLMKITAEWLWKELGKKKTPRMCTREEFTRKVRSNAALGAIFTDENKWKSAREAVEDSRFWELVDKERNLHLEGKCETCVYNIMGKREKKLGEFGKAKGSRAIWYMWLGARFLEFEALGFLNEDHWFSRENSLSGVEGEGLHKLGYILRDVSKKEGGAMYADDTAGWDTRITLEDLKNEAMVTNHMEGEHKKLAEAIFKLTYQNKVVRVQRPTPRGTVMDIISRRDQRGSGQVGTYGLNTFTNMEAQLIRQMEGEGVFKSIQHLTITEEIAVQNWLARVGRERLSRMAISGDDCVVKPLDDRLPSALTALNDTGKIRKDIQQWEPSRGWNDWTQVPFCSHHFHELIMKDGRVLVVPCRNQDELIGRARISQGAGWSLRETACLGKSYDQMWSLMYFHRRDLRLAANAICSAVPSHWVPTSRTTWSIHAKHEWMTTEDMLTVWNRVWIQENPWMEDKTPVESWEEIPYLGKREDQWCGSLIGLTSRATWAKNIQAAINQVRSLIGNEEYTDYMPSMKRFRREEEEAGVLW

With `COC(=O)CSc1nc(-c2cccs2)ccc1C#N` the EC50 [1] was 0.219 µM (active), the EC50 [2] was 0.307 µM (active) and the EC50 [3] was < 0.1 µM (active). For the same compound, the EC50 [4] was 0.179 µM (active) and the EC50 (H4) was 0.261 µM (active).

For `Cc1ccc(-n2nnnc2SCc2nnc(-c3ccccc3Br)o2)cc1`, the IC50 [5] was 3.85 µM (active), the EC50 [6] was > 53 µM (inactive) and the IC50 [7] was 11 µM (active).

In the case of `COC(=O)c1ccccc1NC(=O)c1cccc(COc2ccccc2Cl)c1`, the EC50 [1] is reported as 0.299 µM (active), the EC50 [2] is reported as 0.809 µM (active) and the EC50 [3] is reported as < 0.1 µM (active). For the same compound, the EC50 [4] was 0.295 µM (active).

For `COc1cc(NC(=O)CSc2ncnc3sc4c(c23)CCC(C)C4)c(C(=O)O)cc1OC` (stereo not given), the IC50 (Genome polyprotein) was 86 µM (active).

For `N#C/C(=C\c1cccs1)Sc1nc2ccccc2s1`, the EC50 [8] was 16.3 µM (active) and the EC50 [9] was 17.3 µM (active).

For `Cc1cccc2cc3c(N)c(C(=O)Nc4ccc(N5CCOCC5)cc4)sc3nc12`, the IC50 (HEK293 [10]) was 7.54 µM (inactive), the EC50 (HEK293 [11]) was 18.7 µM (active) and the EC50 [12] was > 300 µM (not active). The IC50 (HEK293 [13]) was > 20 µM (inactive), the IC50 (HEK293 [14]) was 5.5 µM (active) and the EC50 [15] was > 300 µM (not active).

With `Cc1cccc(CSc2nc3c(c(=O)n2C)SCC3)c1` the IC50 [5] was > 20 µM (inactive), the EC50 [6] was > 53 µM (inactive) and the IC50 [7] was < 0.368 µM (active).

For `N=C(CS(=O)(=O)c1ccccn1)NOC(=O)c1ccccc1Cl`, the EC50 [16] was 0.17 µM (active), the EC50 [1] was 0.244 µM (active) and the EC50 [2] was 0.769 µM (active). The EC50 [3] was < 0.1 µM (active), the EC50 [4] was 5.85 µM (active) and the EC50 (H4) was 10.7 µM (active).

With `CCCn1nc(Oc2nc(SC)nc(N(C)C)n2)ccc1=O` the IC50 [17] was > 100 µM (active).

With `O=C(Nc1ccccc1NC(=O)c1c(F)c(F)c(F)c(F)c1F)c1c(F)c(F)c(F)c(F)c1F` the EC50 [8] was 17.1 µM (active) and the EC50 [9] was 12.5 µM (active).

With `CCCC(=O)N1CCc2cc(-c3nc(N)sc3C)ccc21` the EC50 [16] was 43.5 µM (active), the EC50 [18] was 0.376 µM (active) and the EC50 [3] was 31.9 µM (active). For the same compound, the AC50 [19] was 0.149 µM (active), the EC50 [6] was > 53 µM (inactive) and the EC50 (H4) was 44.6 µM (active). For the same compound, the IC50 [7] was > 47.1 µM (inactive).
